pIC50: −log10 of the molar value.
Key:
Assay type in all cases: functional, cell-based
[1] = system: A2780; assay: Antiproliferative activity against human A2780 cells by MTT assay
[2] = system: SiHa; assay: Antiproliferative activity against human SiHa cells by MTT assay
[3] = system: HeLa; assay: Antiproliferative activity against human HeLa cells by MTT assay
[4] = system: MDA-MB-231; assay: Antiproliferative activity against human MDA-MB-231 cells by MTT assay

Measured: pIC50

C=C(C)[C@H](CCC(C)(C)O)Cc1c(O)ccc2c1C(=O)C(=O)c1c-2c(O)cc(OC)c1-c1c(OC)cc(O)c2c1C(=O)C(=O)c1c-2ccc(O)c1C[C@@H](CCC(C)(C)O)C(=C)C
> 5.00: all assays above

COc1cc(O)c2c(c1-c1c(OC)cc(O)c3c1C(=O)C(=O)c1c-3ccc(O)c1CCC(C)(C)O)C(=O)C(=O)c1c-2ccc(O)c1CCC(C)(C)O
> 5.00: all assays above

Source: ChEMBL document CHEMBL4602690, “Pigments of the Moss Paraleucobryum longifolium: Isolation and Structure Elucidation of Prenyl-Substituted 8,8'-Linked 9,10-Phenanthrenequinone Dimers” (J Nat Prod, 2020)
